# Measurements as given in patent publication US7205305B2, “Inhibitors of p38” (Vertex Pharmaceuticals Incorporated, priority 1996, dated 2007).
# Biological target: activated p38 (Homo sapiens, UniProt Q16539)
# Test: Inhibition of phosphorylation of EGF receptor peptide ("kinase")
# Assay type: biochemical
# Settings: inhibition of phosphorylation of EGF receptor peptide by activated p38
# Procedure: This assay was carried out in the presence of 10 mM MgCl2, 25 mM β-glycerophosphate, 10% glycerol and 100 mM HEPES buffer at pH 7.6. […] The stock solution was aliquotted into vials. A fixed volume of DMSO or inhibitor in DMSO (final concentration of DMSO in reaction was 5%) was introduced to each vial, mixed and incubated for 15 minutes at room temperature. EGF receptor peptide, […], a phosphoryl acceptor in p38-catalyzed kinase reaction (1), was added to each vial to a final concentration of 200 μM. The kinase reaction was initiated with ATP (100 μM) and the vials were incubated at 30° C. After 30 minutes, the reactions were quenched with equal volume of 10% trifluoroacetic acid (TFA).
# The phosphorylated peptide was quantified by HPLC analysis. Separation of phosphorylated peptide from the unphosphorylated peptide was achieved on a reverse phase column (Deltapak, 5 μm, C18 100D, part no. 011795) with a binary gradient of water and acteonitrile, each containing 0.1% TFA.
# activated p38, sequence (Q16539 whole entry): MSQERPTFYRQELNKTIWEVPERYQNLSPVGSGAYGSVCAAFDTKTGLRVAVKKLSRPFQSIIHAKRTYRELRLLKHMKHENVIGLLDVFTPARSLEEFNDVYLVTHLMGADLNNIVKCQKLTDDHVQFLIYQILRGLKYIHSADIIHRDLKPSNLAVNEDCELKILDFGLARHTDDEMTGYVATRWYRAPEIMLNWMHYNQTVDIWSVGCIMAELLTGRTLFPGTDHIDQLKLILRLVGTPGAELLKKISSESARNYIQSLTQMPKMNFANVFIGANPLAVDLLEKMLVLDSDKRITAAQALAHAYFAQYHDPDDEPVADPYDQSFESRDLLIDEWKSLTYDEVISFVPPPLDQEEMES
row,Compound,IC50
1,COCOc1ccccc1-c1cccc(C(C(N)=O)c2c(Cl)cccc2Cl)n1 (centres unmarked) [Compound 385],100 to 1000 nM
2,NC(=O)C(c1cncc(-c2ccccc2)n1)c1c(Cl)cccc1Cl (centres unmarked) [Compound 384],100 to 1000 nM
3,NC(=O)C(c1ccc(Sc2ccc(F)cc2Cl)nn1)c1ccc(N)cc1Cl (centres unmarked) [Compound 207],≥ 1000 nM
4,NC(=O)C(c1cccc(-c2ccccc2C=O)n1)c1c(F)cccc1Cl (centres unmarked) [Compound 348],≥ 1000 nM
5,CSc1ccc(-c2cccc(C(C(N)=O)c3c(F)cccc3Cl)n2)cc1 (centres unmarked) [Compound 334],≥ 1000 nM
6,NC(=O)C(c1cccc(-c2ccccc2Cl)n1)c1c(Cl)cccc1Cl (centres unmarked) [Compound 375],≤ 100 nM
7,NC(=O)C(c1cccc(-c2cccc(C=O)c2)n1)c1c(Cl)cccc1Cl (centres unmarked) [Compound 321],≥ 1000 nM
8,Cc1cccc(-c2cccc(C(C(N)=O)c3c(Cl)cccc3Cl)n2)c1C (centres unmarked) [Compound 376],≤ 100 nM
9,NC(=O)C(c1cccc(-c2cc3ccccc3s2)n1)c1c(Cl)cccc1Cl (centres unmarked) [Compound 356],≥ 1000 nM
10,NC(=O)C(c1cccc(-c2ccccc2)n1)c1cc2c(cc1Cl)OCO2 (centres unmarked) [Compound 397],≥ 1000 nM
11,NC(=O)C(c1cccc(-c2cccc(CO)c2)n1)c1c(Cl)cccc1Cl (centres unmarked) [Compound 380],100 to 1000 nM
12,NC(=O)C(c1cccc(-c2ccc3ccccc3c2)n1)c1c(Cl)cccc1Cl (centres unmarked) [Compound 354],≥ 1000 nM
13,COc1ccccc1-c1cccc(C(C(N)=O)c2c(F)cccc2Cl)n1 (centres unmarked) [Compound 345],≥ 1000 nM
14,NC(=O)C(c1cccc(-c2ccc(F)cc2C(F)(F)F)n1)c1c(Cl)cccc1Cl (centres unmarked) [Compound 391],100 to 1000 nM
15,NC(=O)C(c1cccc(-c2ccccc2C=O)n1)c1c(Cl)cccc1Cl (centres unmarked) [Compound 327],100 to 1000 nM
16,NC(=O)C(c1cccc(-c2cccc([N+](=O)[O-])c2)n1)c1c(Cl)cccc1Cl (centres unmarked) [Compound 308],≥ 1000 nM
17,NC(=O)C(c1cccc(-c2ccsc2)n1)c1c(Cl)cccc1Cl (centres unmarked) [Compound 318],100 to 1000 nM
18,NC(=O)C(c1cccc(-c2ccc(C=O)cc2)n1)c1c(Cl)cccc1Cl (centres unmarked) [Compound 316],≥ 1000 nM
19,NCCNCc1ccccc1-c1cccc(C(C(N)=O)c2c(Cl)cccc2Cl)n1 (centres unmarked) [Compound 359],≥ 1000 nM
20,NC(=O)C(c1cccc(-c2cccc(C=O)c2)n1)c1c(F)cccc1Cl (centres unmarked) [Compound 342],≥ 1000 nM
21,NC(=O)C(c1cccc(-c2cccc(C(F)(F)F)c2)n1)c1c(Cl)cccc1Cl (centres unmarked) [Compound 379],≤ 100 nM
22,NC(=O)C(c1ccc(Sc2ccccc2)nn1)c1ccc(Cl)cc1Cl (centres unmarked) [Compound 203],≥ 1000 nM
23,COc1ccc(-c2c(=O)ncn3nc(Sc4ccccc4)ccc23)cc1 [Compound 10],≥ 1000 nM

row,Compound,IC50
1,CCc1ccccc1-c1cccc(C(C(N)=O)c2c(Cl)cccc2Cl)n1 (centres unmarked) [Compound 377],≤ 100 nM
2,NC(=O)C(c1cccc(-c2ccc(Cl)cc2)n1)c1c(F)cccc1Cl (centres unmarked) [Compound 330],≥ 1000 nM
3,NC(=O)C(c1cccc(-c2cc(Cl)cc(Cl)c2)n1)c1c(Cl)cccc1Cl (centres unmarked) [Compound 392],100 to 1000 nM
4,NC(=O)C(c1cccc(-c2ccc(Cl)s2)n1)c1c(F)cccc1Cl (centres unmarked) [Compound 347],≥ 1000 nM
5,NC(=O)C(c1cccc(-c2ccc(C(F)(F)F)cc2)n1)c1c(Cl)cccc1Cl (centres unmarked) [Compound 319],≥ 1000 nM
6,NC(=O)C(c1cccc(-c2ccc(Cl)s2)n1)c1c(Cl)cccc1Cl (centres unmarked) [Compound 326],≥ 1000 nM
7,CSc1ccc(-c2cccc(C(C(N)=O)c3c(Cl)cccc3Cl)n2)cc1 (centres unmarked) [Compound 314],≥ 1000 nM
8,NC(=O)C(c1cccc(-c2ccsc2)n1)c1c(F)cccc1Cl (centres unmarked) [Compound 339],≥ 1000 nM
9,NC(=O)C(c1cccc(-c2ccccc2CNCC(O)CO)n1)c1c(Cl)cccc1Cl (centres unmarked) [Compound 360],≥ 1000 nM
10,NC(=O)C(c1cccc(-c2cc(F)c(F)c(F)c2)n1)c1c(Cl)cccc1Cl (centres unmarked) [Compound 388],≤ 100 nM
11,Cc1cccc(C)c1C(C(N)=O)c1cccc(-c2ccccc2)n1 (centres unmarked) [Compound 381],100 to 1000 nM
12,NC(=O)C(c1cccc(-c2ccc(F)cc2O)n1)c1c(Cl)cccc1Cl (centres unmarked) [Compound 390],≥ 1000 nM
13,NC(=O)C(c1cccc(-c2c(F)cc(F)cc2F)n1)c1c(Cl)cccc1Cl (centres unmarked) [Compound 399],≤ 100 nM
14,NC(=O)C(c1cccc(-c2ccc(C(=O)O)cc2)n1)c1c(F)cccc1Cl (centres unmarked) [Compound 336],≥ 1000 nM
15,NC(=O)C(c1cccc(-c2cccs2)n1)c1c(F)cccc1Cl (centres unmarked) [Compound 338],≥ 1000 nM
16,NC(=O)C(c1cccc(-c2cccc(Cl)c2Cl)n1)c1c(Cl)cccc1Cl (centres unmarked) [Compound 382],≤ 100 nM
17,NC(=O)C(c1cccc(-c2ccccc2CCO)n1)c1c(Cl)cccc1Cl (centres unmarked) [Compound 378],≤ 100 nM
18,NC(=O)C(c1cccc(-c2ccc(F)cc2F)n1)c1c(Cl)cccc1Cl (centres unmarked) [Compound 396],≤ 100 nM
19,NC(=O)C(c1cccc(-c2cc(C(F)(F)F)cc(C(F)(F)F)c2)n1)c1c(Cl)cccc1Cl (centres unmarked) [Compound 387],≥ 1000 nM
20,Nc1cc(F)c(F)cc1SC1=NN2CNC(=O)C(c3c(Cl)cccc3Cl)=C2C=C1 [Compound 119],100 to 1000 nM
21,NC(=O)C(c1cccc(-c2ccc(C=O)cc2)n1)c1c(F)cccc1Cl (centres unmarked) [Compound 337],≥ 1000 nM
22,O=c1ncn2nc(Sc3ccc(F)cc3Cl)ccc2c1-c1cc2c(cc1Cl)OCO2 [Compound 45],100 to 1000 nM
23,NC(=O)C(c1ccc(F)cc1)c1ccc(Sc2ccccc2)nn1 (centres unmarked) [Compound 204],≥ 1000 nM

row,Compound,IC50
1,O=C(CN1CCOCC1)Nc1ccc(-c2c(=O)ncn3nc(Sc4ccc(F)cc4)ccc23)c(Cl)c1 [Compound 52],100 to 1000 nM
2,NC(=O)C(c1cccc(-c2ccccc2F)n1)c1c(Cl)cccc1Cl (centres unmarked) [Compound 383],≤ 100 nM
3,NC(=O)C(c1cccc(-c2occc2C=O)n1)c1c(F)cccc1Cl (centres unmarked) [Compound 357],≥ 1000 nM
4,Cc1ccc(Sc2ccc(C(C(N)=O)c3ccc(Cl)cc3Cl)nn2)cc1 (centres unmarked) [Compound 205],≥ 1000 nM
5,CC(=O)Nc1ccc(-c2c(=O)ncn3nc(Sc4ccc(F)cc4)ccc23)c(Cl)c1 [Compound 51],100 to 1000 nM
6,Nc1ccc(F)c(-c2c(=O)ncn3nc(Sc4ccc(F)cc4)ccc23)c1Cl [Compound 42],≥ 1000 nM
7,CN(C)/C=N\c1ccc(-c2c(=O)ncn3nc(Sc4ccc(F)cc4)ccc23)c(Cl)c1 [Compound 50],≥ 1000 nM
8,NC(=O)C(c1cccc(-c2ccc(C(=O)O)cc2)n1)c1c(Cl)cccc1Cl (centres unmarked) [Compound 315],≥ 1000 nM
9,NC(=O)C(c1cccc(-c2cccc([N+](=O)[O-])c2)n1)c1c(F)cccc1Cl (centres unmarked) [Compound 328],≥ 1000 nM
10,COCOCc1cc(F)ccc1-c1cccc(C(C(N)=O)c2c(Cl)cccc2Cl)n1 (centres unmarked) [Compound 393],100 to 1000 nM
11,COc1cccc(-c2cccc(C(C(N)=O)c3c(F)cccc3Cl)n2)c1 (centres unmarked) [Compound 343],≥ 1000 nM
12,COCOc1cc(F)ccc1-c1cccc(C(C(N)=O)c2c(Cl)cccc2Cl)n1 (centres unmarked) [Compound 389],100 to 1000 nM
13,Cc1ccc(-c2cccc(C(C(N)=O)c3c(F)cccc3Cl)n2)cc1 (centres unmarked) [Compound 331],≥ 1000 nM
14,NC(=O)C(c1cccc(-c2ccccc2O)n1)c1c(Cl)cccc1Cl (centres unmarked) [Compound 386],≥ 1000 nM
15,NC(=O)C(c1cccc(-c2ccccc2C(F)(F)F)n1)c1c(Cl)cccc1Cl (centres unmarked) [Compound 374],100 to 1000 nM
16,Cc1c(Cl)cccc1-c1cccc(C(C(N)=O)c2c(Cl)cccc2Cl)n1 (centres unmarked) [Compound 1301],≤ 100 nM
17,Cc1cc(-c2cccc(C(C(N)=O)c3c(Cl)cccc3Cl)n2)ccc1F (centres unmarked) [Compound 395],≤ 100 nM
18,NC(=O)C(c1cccc(-c2ccc(C(F)(F)F)cc2)n1)c1c(F)cccc1Cl (centres unmarked) [Compound 340],≥ 1000 nM
19,NC(=O)C(c1cccc(-c2cc3ccccc3o2)n1)c1c(Cl)cccc1Cl (centres unmarked) [Compound 355],≥ 1000 nM
20,NC(=O)C(c1cccc(-c2ccc(F)cc2CO)n1)c1c(Cl)cccc1Cl (centres unmarked) [Compound 394],≤ 100 nM
21,NC(=O)C(c1cccc(-c2cccc(F)c2)n1)c1c(F)cccc1Cl (centres unmarked) [Compound 344],≥ 1000 nM
22,NC(=O)C(c1cccc(-c2ccccc2)n1)c1c(F)cccc1F (centres unmarked) [Compound 366],≥ 1000 nM
